Source: patent US8518947B2, “(Heterocycle/tetrahydropyridine)-(piperazinyl)-1-alcanone and (heterocycle/dihydropyrrolidine)-(piperazinyl)-1-alcanone derivatives, and use thereof as p75 inhibitors” (Sanofi, priority 2009, dated 2013)

How the values were obtained:
p75^NTR receptor = molecular target: T1, p75^NTR receptor (Homo sapiens, UniProt P08138); test: Study of the dimerization of the p75NTR receptor independently of its ligand (binding of soluble p75NTR-alkaline phosphatase to SK-N-BE Bep 75 cells); conditions: 1 hour preincubation at 37° C., soluble p75NTR-alkaline phosphatase 10 nM
T1 construct: the clone Bep 75, stably expressing the complete form of the human p75^NTR receptor; expressed in transfected cells; host or cells: SK-N-BE Bep 75 (human neuroblastoma clone stably expressing the receptor); the soluble p75NTR-AP came from the supernatant of transiently transfected HEK293 cells
T1 sequence (P08138 29-427): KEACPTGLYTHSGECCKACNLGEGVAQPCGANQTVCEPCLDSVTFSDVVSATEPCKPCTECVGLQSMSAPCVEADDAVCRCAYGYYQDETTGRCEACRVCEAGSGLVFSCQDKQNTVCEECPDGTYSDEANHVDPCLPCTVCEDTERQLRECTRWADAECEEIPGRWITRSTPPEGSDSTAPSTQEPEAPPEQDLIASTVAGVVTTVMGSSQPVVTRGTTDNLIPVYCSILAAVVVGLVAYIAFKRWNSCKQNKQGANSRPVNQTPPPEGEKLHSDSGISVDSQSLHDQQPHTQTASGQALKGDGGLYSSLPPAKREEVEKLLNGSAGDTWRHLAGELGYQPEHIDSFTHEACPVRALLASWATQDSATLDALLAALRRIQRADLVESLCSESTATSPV
Description: (§1) The SK-N-BE parent strain (human neuroblastoma) and the clone Bep 75, stably expressing the complete form of the human p75^NTR receptor (SK-N-BE Bep 75) are conventionally cultured in an RPMI culture medium containing FCS (5%), sodium pyruvate (1 mM) and glutamine (4 mM). For the SK-N-BE Bep 75 cells, hygromycin (200 μl/20 ml of medium) is added as selection agent.
Study of the Dimerization of the p75^NTR Receptor Independently of its Ligand
The study of the dimerization of the p75^NTR receptor is performed on a cell suspension of the strain SK-N-BE Bep 75. The cells (2.5×10^4 cells/well) are placed in wells (96-well plate) for 24 hours, and then preincubated for 1 hour at 37° C. in the presence or absence of the compounds according to the invention. Supernatent, obtained from a culture of human cells of HEK293 renal origin expressing, after 48 hours of transfection, and secreting a soluble form of the p75^NTR receptor (extracellular part of the receptor) coupled to an alkaline phosphatase, the latter at a final concentration of 10 nM, is then added. The quantification of the specific binding of the soluble receptor to the receptor present on SK-N-BE Bep 75 cells is determined by measuring the enzyme activity of the alkaline phosphatase after incubation of the cells for 1 hour at 37° C. in the presence of the supernatant. After filtering and transferring the filters into 24-well plates, the alkaline phosphatase activity is determined by adding CDP-Star chemoluminescent substrate (ready-to-use, Roche).

[1] = system: strains of human neuroblastomas SH-SY-5Y and SK-N-BE Bep 75; test: Measurement of the apoptosis (cell death detection ELISA, cytoplasmic histones associated with DNA fragments); format: cell-based; conditions: SH-SY-5Y (48 hours) and SK-N-BE Bep 75 (24 hours), NGF 10 ng/ml or beta-amyloid peptide 10 μM, cell line not stated, read-out: IC50 in the apoptosis test
Description: The SH-SY-5Y strain (human neuroblastoma) is conventionally cultured in a DMEM culture medium (Dulbecco's Modified Eagle's Medium) (Gibco BRL, France) containing FCS (5%) (fetal calf serum) (Boehringer Mannheim, Germany), sodium pyruvate (1 mM) and glutamine (4 mM) in collagen-covered culture flasks (Becton Dickinson, France).
as §1
Measurement of the Apoptosis
The cells (strains of human neuroblastomas SH-SY-5Y and SK-N-BE Bep 75) are placed in Petri dishes 35 mm in diameter (Biocoat collagenl, (10^5 cells/well)) in a suitable culture medium containing 5% FCS, for 24 hours. The culture medium is then removed, the cells are rinsed with PBS (Dulbecco's Phosphate-buffered saline), and then either fresh medium containing 5% FCS, or medium containing NGF (at a concentration of 10 ng/ml), or beta-amyloid peptide (A1β1-40) (at a concentration of 10 μM) is then added, in the presence or absence of the compounds according to the invention. The apoptosis levels are measured 48 hours after the treatments in the case of the strain SH-SY-5Y, and 24 hours later in the case of the strain SK-N-BE Bep 75, by quantifying the cytoplasmic histones associated with the DNA fragments (cell death detection ELISA, Boehringer Mannheim, Germany). The apoptosis levels are expressed as the amount of oligonucleosomes/10^5 cells. Each value corresponds to the average of 9 experimental points distributed over 3 independent experiments.

C[C@@H]1CN(c2ccc(C(F)(F)F)cn2)[C@@H](C)CN1CC(=O)N1CC=C(c2cccc3ccoc23)CC1 [Compound 14, 1-(4-benzofuran-7-yl-3,6-dihydro-2H-pyridin-1-yl)-2-[(2R,5S)-2,5-dimethyl-4-(5-trifluoromethylpyridin-2-yl)piperazin-1-yl]ethanone]
IC50 (p75^NTR receptor): 1.09 nM
IC50 [1]: 1.33 nM

C[C@@H]1CN(c2ccc3ccccc3n2)C[C@H](C)N1CC(=O)N1CC=C(c2cccc3ccsc23)CC1 [Compound 19, 1-(4-benzo[b]thiophen-7-yl-3,6-dihydro-2H-pyridin-1-yl)-2-((2S,6R)-2,6-dimethyl-4-quinolin-2-ylpiperazin-1-yl)ethanone]
IC50 [1]: 1.07 nM

C[C@@H]1CN(c2ccc(C(F)(F)F)cn2)C[C@H](C)N1CC(=O)N1CC=C(c2cccc3ccoc23)CC1 [Compound 34, 1-(4-benzofuran-7-yl-3,6-dihydro-2H-pyridin-1-yl)-2-[(2S,6R)-2,6-dimethyl-4-(5-trifluoromethylpyridin-2-yl)piperazin-1-yl]ethanone]
IC50 (p75^NTR receptor): 0.94 nM
IC50 [1]: 3.39 nM
melting point: 138 to 139 °C
